In ChEMBL document CHEMBL4002601, “A triple exon-skipping luciferase reporter assay identifies a new CLK inhibitor pharmacophore” (Bioorg Med Chem Lett, 2017):
The source made the active and inactive calls. The calls are words filed in the database; no cut-off is given here.

Experiments:
[1] = target: T1, Dual specificity protein kinase CLK1 (Homo sapiens, UniProt P49759); assay: Inhibition of CLK mediated SF3B1 activation in human SK-MEL-2 cells assessed as MDM2-pre mRNA exon skipping at 10 uM after 4 hrs by luciferase reporter gene assay relative to control; type: cell-based; parameters: Activity: scale not given: the % may be the effect or the level left
Target sequence in this assay (P49759 whole entry, looked up): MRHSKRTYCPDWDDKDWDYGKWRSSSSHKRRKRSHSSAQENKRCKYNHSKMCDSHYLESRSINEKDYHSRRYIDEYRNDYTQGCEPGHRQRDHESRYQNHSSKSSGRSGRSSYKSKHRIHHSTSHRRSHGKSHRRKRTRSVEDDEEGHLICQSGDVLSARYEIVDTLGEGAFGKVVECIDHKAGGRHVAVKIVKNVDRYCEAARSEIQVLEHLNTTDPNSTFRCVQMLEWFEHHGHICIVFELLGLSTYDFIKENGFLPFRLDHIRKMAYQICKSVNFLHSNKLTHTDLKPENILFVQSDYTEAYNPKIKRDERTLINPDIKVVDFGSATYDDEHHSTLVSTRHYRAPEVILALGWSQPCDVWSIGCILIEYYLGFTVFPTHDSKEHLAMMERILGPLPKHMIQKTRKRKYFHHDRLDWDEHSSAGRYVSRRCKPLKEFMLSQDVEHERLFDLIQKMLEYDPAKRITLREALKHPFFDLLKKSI

[2] = target: T1, Dual specificity protein kinase CLK1; assay: Inhibition of CLK mediated SF3B1 activation in human SK-MEL-2 cells assessed as MDM2-pre mRNA exon skipping after 4 hrs by luciferase reporter gene assay relative to control; type: cell-based
Target sequence in this assay (P49759 whole entry): as the sequence (P49759 whole entry, looked up) above

[3] = target: T1, Dual specificity protein kinase CLK1; assay: Inhibition of human CLK1 using substrate ERMRPRKRQGSVRRRV in presence of [gamma-33P]ATP after 40 mins by scintillation counter method
Target sequence in this assay (P49759 whole entry): as the sequence (P49759 whole entry, looked up) above

[4] = target: T1, Dual specificity protein kinase CLK1; assay: Inhibition of CLK mediated SF3B1 activation in human HeLa cells assessed as MDM2-pre mRNA exon skipping by luciferase reporter gene assay; type: cell-based
Target sequence in this assay (P49759 whole entry): as the sequence (P49759 whole entry, looked up) above

[5] = target: Dual specificity protein kinase CLK2 (Homo sapiens, UniProt P49760); assay: Inhibition of human CLK2 using YRRAAVPPSPSLSRHSSPHQS(p)EDEEE as substrate in presence of [gamma-33P]ATP after 40 mins by scintillation counter method
[6] = target: Dual specificity protein kinase CLK3 (Homo sapiens, UniProt P49761); assay: Inhibition of human CLK3 using ERMRPRKRQGSVRRRV as substrate in presence of [gamma-33P]ATP after 40 mins by scintillation counter method
[7] = target: Dual specificity protein kinase CLK4 (Homo sapiens, UniProt Q9HAZ1); assay: Inhibition of human CLK4 using YRRAAVPPSPSLSRHSSPHQS(p)EDEEE as substrate in presence of [gamma-33P]ATP after 40 mins by scintillation counter method
[8] = target: Cyclin-dependent kinase 1/cyclin B1 (Homo sapiens, UniProt P06493); assay: Inhibition of human CDK1/cyclinB using Histone H1 as substrate in presence of [gamma-33P]ATP after 40 mins by scintillation counter method; type: protein-complex assay
[9] = target: CDK4/Cyclin D3 (Homo sapiens, UniProt P11802); assay: (§1) Inhibition of human CDK4/cyclinD3 using Histone H1 as substrate in presence of [gamma-33P]ATP after 40 mins by scintillation counter method; type: protein-complex assay
[10] = target: CDK6/cyclin D3 (Homo sapiens, UniProt Q00534); assay: (§2) Inhibition of human CDK6/cyclinD3 using Histone H1 as substrate in presence of [gamma-33P]ATP after 40 mins by scintillation counter method; type: protein-complex assay
[11] = target: T1, Dual specificity protein kinase CLK1; assay: Inhibition of CLK mediated SF3B1 activation in human Rh-18 cells assessed as MDM2-pre mRNA exon skipping at 10 uM after 8 hrs by RT-PCR method; type: cell-based
Target sequence in this assay (P49759 whole entry, looked up): as the sequence (P49759 whole entry, looked up) above

[12] = Solubility of the compound; type: physicochemical
[13] = target: CDK4/Cyclin D3 (Homo sapiens, UniProt P11802+P30281); assay: as §1; type: protein-complex assay
[14] = target: CDK6/cyclin D3 (Homo sapiens, UniProt P30281+Q00534); assay: as §2; type: protein-complex assay
Chain of CDK6/cyclin D3 (Homo sapiens, UniProt P30281+Q00534) (P30281 whole entry): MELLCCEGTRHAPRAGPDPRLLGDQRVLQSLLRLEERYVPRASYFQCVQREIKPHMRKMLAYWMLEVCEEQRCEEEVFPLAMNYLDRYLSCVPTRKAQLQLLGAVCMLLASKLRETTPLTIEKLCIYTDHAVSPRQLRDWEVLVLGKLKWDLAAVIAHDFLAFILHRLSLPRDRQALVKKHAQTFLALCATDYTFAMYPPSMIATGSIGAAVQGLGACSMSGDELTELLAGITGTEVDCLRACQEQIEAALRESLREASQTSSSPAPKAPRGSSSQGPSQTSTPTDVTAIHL
Chain of CDK6/cyclin D3 (Homo sapiens, UniProt P30281+Q00534) (Q00534 whole entry): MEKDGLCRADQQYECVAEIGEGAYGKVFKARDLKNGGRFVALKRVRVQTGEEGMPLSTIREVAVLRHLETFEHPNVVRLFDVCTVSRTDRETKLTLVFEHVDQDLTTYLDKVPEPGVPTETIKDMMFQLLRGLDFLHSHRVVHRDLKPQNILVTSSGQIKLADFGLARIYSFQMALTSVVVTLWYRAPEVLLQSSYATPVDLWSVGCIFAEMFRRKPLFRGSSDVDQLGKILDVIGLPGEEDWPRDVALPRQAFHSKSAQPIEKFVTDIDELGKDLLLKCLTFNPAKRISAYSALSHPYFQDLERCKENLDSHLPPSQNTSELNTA

Chain of CDK4/Cyclin D3 (Homo sapiens, UniProt P11802) (P11802 whole entry): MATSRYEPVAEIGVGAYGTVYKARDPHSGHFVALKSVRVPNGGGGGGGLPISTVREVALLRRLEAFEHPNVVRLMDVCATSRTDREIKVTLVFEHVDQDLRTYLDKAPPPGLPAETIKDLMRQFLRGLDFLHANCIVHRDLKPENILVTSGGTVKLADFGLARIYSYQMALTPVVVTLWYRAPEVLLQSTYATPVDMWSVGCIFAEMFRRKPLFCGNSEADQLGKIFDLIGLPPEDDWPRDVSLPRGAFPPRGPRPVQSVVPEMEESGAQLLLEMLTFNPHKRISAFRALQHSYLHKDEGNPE
Chain of CDK4/Cyclin D3 (Homo sapiens, UniProt P11802) (P30281 whole entry, further chain): as the sequence (P30281 whole entry) above
Chain of CDK6/cyclin D3 (Homo sapiens, UniProt Q00534) (P30281 whole entry): as above
Chain of CDK6/cyclin D3 (Homo sapiens, UniProt Q00534) (Q00534 whole entry): as the sequence (Q00534 whole entry) above
Chain of Dual specificity protein kinase CLK3 (P49761 whole entry): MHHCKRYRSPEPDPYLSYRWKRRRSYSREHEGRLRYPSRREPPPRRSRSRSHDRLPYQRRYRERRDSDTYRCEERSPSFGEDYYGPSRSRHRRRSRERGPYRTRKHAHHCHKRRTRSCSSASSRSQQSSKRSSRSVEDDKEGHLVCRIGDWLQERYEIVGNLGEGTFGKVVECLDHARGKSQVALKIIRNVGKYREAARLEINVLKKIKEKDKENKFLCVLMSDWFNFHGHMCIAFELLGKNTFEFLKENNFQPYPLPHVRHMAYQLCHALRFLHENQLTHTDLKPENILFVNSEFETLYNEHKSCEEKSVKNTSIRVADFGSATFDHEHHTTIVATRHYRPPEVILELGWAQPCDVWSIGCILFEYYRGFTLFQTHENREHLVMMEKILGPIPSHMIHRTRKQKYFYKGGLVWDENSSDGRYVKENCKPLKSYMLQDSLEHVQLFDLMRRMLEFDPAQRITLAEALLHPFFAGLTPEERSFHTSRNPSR
Chain of Dual specificity protein kinase CLK2 (P49760 whole entry): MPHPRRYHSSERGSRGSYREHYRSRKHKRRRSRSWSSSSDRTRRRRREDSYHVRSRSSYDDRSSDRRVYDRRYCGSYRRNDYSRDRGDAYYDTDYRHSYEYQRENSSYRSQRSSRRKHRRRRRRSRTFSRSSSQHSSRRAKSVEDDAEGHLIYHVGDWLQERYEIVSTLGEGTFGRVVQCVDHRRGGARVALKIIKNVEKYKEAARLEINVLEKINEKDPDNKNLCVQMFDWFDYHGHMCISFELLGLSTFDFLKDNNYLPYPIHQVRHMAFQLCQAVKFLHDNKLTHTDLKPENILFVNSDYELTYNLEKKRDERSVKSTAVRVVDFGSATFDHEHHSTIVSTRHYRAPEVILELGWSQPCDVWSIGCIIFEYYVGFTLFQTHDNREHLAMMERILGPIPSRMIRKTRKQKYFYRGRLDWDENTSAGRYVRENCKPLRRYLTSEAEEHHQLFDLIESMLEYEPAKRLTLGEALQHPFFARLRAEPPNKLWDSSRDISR
Chain of Cyclin-dependent kinase 1/cyclin B1 (P06493 whole entry): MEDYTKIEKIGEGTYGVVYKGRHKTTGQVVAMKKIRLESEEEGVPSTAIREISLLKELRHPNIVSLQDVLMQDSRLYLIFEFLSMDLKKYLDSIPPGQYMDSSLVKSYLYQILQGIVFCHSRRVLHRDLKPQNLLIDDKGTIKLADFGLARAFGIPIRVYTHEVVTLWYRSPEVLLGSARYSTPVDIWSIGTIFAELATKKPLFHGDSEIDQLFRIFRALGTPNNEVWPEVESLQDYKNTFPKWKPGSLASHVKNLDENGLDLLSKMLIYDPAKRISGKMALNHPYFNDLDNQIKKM
Chain of Cyclin-dependent kinase 1/cyclin B1 (P14635 whole entry, further chain): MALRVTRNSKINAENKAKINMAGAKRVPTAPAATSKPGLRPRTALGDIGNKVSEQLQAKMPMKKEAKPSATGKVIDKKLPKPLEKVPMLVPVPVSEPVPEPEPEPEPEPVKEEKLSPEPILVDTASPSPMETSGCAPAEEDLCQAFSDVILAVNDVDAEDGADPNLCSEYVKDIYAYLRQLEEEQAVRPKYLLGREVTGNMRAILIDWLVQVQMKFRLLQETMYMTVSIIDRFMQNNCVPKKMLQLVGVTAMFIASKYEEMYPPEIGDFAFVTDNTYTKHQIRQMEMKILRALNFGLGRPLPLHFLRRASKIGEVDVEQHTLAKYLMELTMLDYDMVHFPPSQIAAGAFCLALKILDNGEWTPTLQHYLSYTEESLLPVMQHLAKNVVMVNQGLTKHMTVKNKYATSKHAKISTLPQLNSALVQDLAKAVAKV
Chain of Dual specificity protein kinase CLK4 (Q9HAZ1 whole entry): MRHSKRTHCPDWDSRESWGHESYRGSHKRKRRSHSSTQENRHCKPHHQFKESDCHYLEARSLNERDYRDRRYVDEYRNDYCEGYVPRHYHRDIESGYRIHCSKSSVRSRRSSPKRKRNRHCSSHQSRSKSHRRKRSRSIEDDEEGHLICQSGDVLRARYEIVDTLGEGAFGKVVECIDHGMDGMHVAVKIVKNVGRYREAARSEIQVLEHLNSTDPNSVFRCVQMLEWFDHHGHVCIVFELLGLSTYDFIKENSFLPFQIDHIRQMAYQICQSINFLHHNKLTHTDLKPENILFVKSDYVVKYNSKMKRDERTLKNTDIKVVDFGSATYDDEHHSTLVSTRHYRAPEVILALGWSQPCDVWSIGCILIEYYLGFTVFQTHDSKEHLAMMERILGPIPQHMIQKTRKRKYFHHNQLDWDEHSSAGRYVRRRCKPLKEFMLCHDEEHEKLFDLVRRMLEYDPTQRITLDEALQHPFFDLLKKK
Chain of CDK4/Cyclin D3 (Homo sapiens, UniProt P11802+P30281) (P11802 whole entry): as the sequence (P11802 whole entry) above
Chain of CDK4/Cyclin D3 (Homo sapiens, UniProt P11802+P30281) (P30281 whole entry): as the sequence (P30281 whole entry) above

## Clc1cccc(Nc2nnc(-c3ccccc3)c3ccccc23)c1
[1]
  Activity: 11%

## COc1ccc2c(c1)/C(=C/c1cnc[nH]1)C(=O)N2
[1]
  Activity: 53%

## CC(=O)Oc1ccc(/C=C/c2cc(OC(C)=O)cc(OC(C)=O)c2)cc1
[1]
  Activity: 17%

## CCN1/C(=C/C(C)=O)Sc2ccc(Cl)cc21
[1]
  inhibition: inactive

## CC(C)n1cnc2c(Nc3cccc(Cl)c3)nc(N[C@H]3CCCC[C@H]3N)nc21
[2]; read-out: EC50
  EC50: 12200 nM
[1]
  fold change (FC): > 3

## CCn1cnc2c(Nc3cccc(Cl)c3)nc(N[C@@H]3CCCC[C@H]3N)nc21
[2]; read-out: EC50
  EC50: 7800 nM
[1]
  fold change (FC): > 3

## O=C(O)COc1ccc(Cl)cc1Cl
[1]
  Activity: 21%

## CC(/C=C/[C@@H]1C[C@]2(CO2)CC(C)(C)O1)=C\C[C@H]1CC[C@@H](NC(=O)/C=C\[C@H](C)OC(=O)N(C)C)CC1
[1]
  inhibition: Active

## CNC(=O)O[C@@H](C)/C=C\C(=O)N[C@H]1CC[C@@H](C/C=C(C)/C=C/[C@@H]2C[C@]3(CO3)CC(C)(C)O2)CC1
[2]; read-out: EC50
  EC50: 800 nM

## CC(C)n1cnc2c(Nc3cc(N)cc(Cl)c3)nc(N[C@H]3CCCNC3)nc21
[2]; read-out: EC50
  EC50: 12900 nM

## CC(C)n1ccc2c(Nc3cccc(Cl)c3)nc(N[C@H]3CCCC[C@H]3N)nc21 (racemic)
[3]
  IC50: > 1000 nM
[1]
  inhibition: inactive

## COc1ccc2c(C)nc(Nc3nc(C)c(C)c(=O)[nH]3)nc2c1
[4]
  EC50: 20000 nM

## CC(=O)Nc1cc(Cl)cc(Nc2nc(N[C@@H]3CCCC[C@@H]3N)nc3c2ncn3C(C)C)c1 (racemic) [listing 1 of 2 here]
[1]
  fold change (FC): > 3

## CC(C)n1cnc2c(Nc3cc(N)cc(Cl)c3)nc(N[C@@H]3CCCC[C@@H]3N)nc21 (racemic)
[2]; read-out: EC50
  EC50: 6500 nM
[3]
  IC50: 18 nM
[5]
  IC50: 16 nM
[6]
  IC50: > 1000 nM
[7]
  IC50: 54 nM
[8]
  IC50: 973 nM
[9]
  IC50: > 1000 nM
[10]
  IC50: > 1000 nM

## CC(C)n1cnc2c(Nc3cc(N)cc(Cl)c3)nc(N[C@H]3CCCC[C@H]3N)nc21
[2]; read-out: EC50
  EC50: 18700 nM

## CC(C)n1cnc2c(Nc3cc(N)cc(Cl)c3)nc(N[C@@H]3CCNC3)nc21
[2]; read-out: EC50
  EC50: 26400 nM

## COc1ccc2c(C)nc(Nc3nc(C)c(C)c(O)n3)nc2c1
[1]
  inhibition: inactive

## COC(=O)c1c(/C(C#N)=C\N)c2ccc(Cl)c(Cl)c2n1C
[2]; read-out: EC50
  EC50: 8000 nM
[1]
  inhibition: Active

## CC(C)[C@H](CO)Nc1nc(Nc2cc(N)cc(Cl)c2)c2ncn(C(C)C)c2n1 [AMINOPURVALANOL]
[2]; read-out: EC50
  EC50: 12000 nM
[11]
  inhibition: Active

## CCn1cnc2c(Nc3cccc(Cl)c3)nc(N[C@@H]3CCCC[C@@H]3NC(C)=O)nc21 (racemic)
[2]
  EC50: Not Active
[3]
  IC50: > 1000 nM

## CC(C)n1cnc2c(Nc3cc(N)cc(Cl)c3)nc(N[C@H]3CCNC3)nc21
[2]; read-out: EC50
  EC50: 12000 nM

## CC(C)n1cnc2c(Nc3cccc(Cl)c3)nc(N[C@@H]3CCCC[C@H]3N)nc21
[2]; read-out: EC50
  EC50: 4500 nM
[1]
  fold change (FC): > 3

## COCCNc1nc(Nc2cccc(Cl)c2)c2ncn(C(C)C)c2n1
[2]
  EC50: Not Active
[12]
  solubility: Insoluble

## CC(=O)Nc1cc(Cl)cc(Nc2nc(N[C@H]3CCCC[C@H]3N)nc3c2ncn3C(C)C)c1
[2]; read-out: EC50
  EC50: 17500 nM

## C#CCCCCCCCCCCC(=O)CC(O)COC(C)=O (centres undefined)
[1]
  Activity: 14%

## CC(=O)Nc1cc(Cl)cc(Nc2nc(N[C@@H]3CCCC[C@@H]3N)nc3c2ncn3C(C)C)c1 (racemic) [listing 2 of 2 here]
[2]; read-out: EC50
  EC50: 8100 nM
[3]
  IC50: 19 nM
[5]
  IC50: 13 nM
[7]
  IC50: 64 nM
[9]
  IC50: 930 nM

## CC1=Nc2ccc(Cl)cc2S(=O)(=O)N1
[1]
  Activity: 11%

## CCn1cnc2c(Nc3cccc(Cl)c3)nc(N[C@@H]3CCCC[C@@H]3N)nc21 (racemic)
[2]; read-out: EC50
  EC50: 4200 nM
[11]
  inhibition: Active
[3]
  IC50: 148 nM
[5]
  IC50: 111 nM
[6]
  IC50: > 1000 nM
[7]
  IC50: 104 nM
[8]
  IC50: 382 nM
[9]
  IC50: 573 nM
[10]
  IC50: > 1000 nM
[1]
  fold change (FC): > 3

## CC(C)n1cnc2c(Nc3cc(N)cc(Cl)c3)nc(N[C@@H]3CCCNC3)nc21
[2]; read-out: EC50
  EC50: 14000 nM

## CC(C)n1cnc2c(Nc3cc(N)cc(Cl)c3)nc(N[C@H]3CCCC[C@@H]3N)nc21
[2]; read-out: EC50
  EC50: 23500 nM

## CC(C)n1cnc2c(Nc3cc(N)cc(Cl)c3)nc(N[C@@H]3CCCC[C@@H]3N)nc21
[2]; read-out: EC50
  EC50: 3000 nM
[6]
  IC50: > 1000 nM
[8]
  IC50: 532 nM
[13]
  IC50: > 1000 nM
[14]
  IC50: > 1000 nM

## CC(C)n1cnc2c(Nc3cc(N)cc(Cl)c3)nc(N[C@@H]3CCCC[C@H]3N)nc21
[2]; read-out: EC50
  EC50: 9700 nM

## CC(=O)Nc1cc(Cl)cc(Nc2nc(N[C@@H]3CCCC[C@@H]3N)nc3c2ncn3C(C)C)c1
[2]; read-out: EC50
  EC50: 7300 nM
[8]
  IC50: > 1000 nM
[10]
  IC50: > 1000 nM

## CCn1cnc2c(Nc3cccc(Cl)c3)nc(N[C@H]3CCCC[C@@H]3N)nc21
[2]; read-out: EC50
  EC50: 22000 nM
[1]
  fold change (FC): > 3
